In data set [1] the test system is C6 glioma cells. Description: LDH cytotoxicity (cell lysis) assay on C6 cells. Type of data set: cell-based. As to conditions: 48 h, dose-response 0.03 to 60 µM. As to the method: (§1) Cell culture: Rat C6 glioma cells were purchased from the American Type Culture Collection (CC-107) and maintained in Dulbecco’s Modified Eagle Medium (Life Technologies, Carlsbad, CA, USA; 10569) with 5% (v/v) fetal bovine serum (FBS, Atlanta Biologicals) and 100 U mL−1 of penicillin and streptomycin (Life Technologies). Cells were incubated at 37 °C with 5% CO2 humidified atmosphere. As a glioma cell line, C6 cells are highly susceptible to phenotypic drift, which can lead to varying expression levels of receptors and growth factors of interest. For such reason, all data presented here show a single representative experiment of many independent replicate trials.
LDH Cytotoxicity Assay: The lactate dehydrogenase cytotoxicity assay (Promega) was performed following the manufacturer’s instructions. Briefly, following compound treatment, conditioned media were removed, and untreated wells were washed twice with phosphate buffered saline. To untreated wells was added 40 μL of low-serum media supplemented with lysis buffer provided in the kit (1:10), protease inhibitor cocktail (1:100), and phosphatase inhibitor cocktail 2 (1:100). Cells were lysed at 37 °C for 1 h. […] The wells were quenched with 50 μL of stop solution, and the plates were read at an absorbance wavelength of 490 nm.

For data set [2], the system named is bloodstream Trypanosoma brucei brucei. Briefly: Bioluminescent viability assay on bloodstream T. b. brucei (LUC cell line). Type of data set: cell-based. As to conditions: 24 h; for viability at 10 µM: read-out: Viability at 10 µM (%), bloodstream T. b. brucei, 10 µM, 24 h. As for the experimental part:
The anti-trypanosomal activity of compounds was evaluated against the bioluminescent cell line of the bloodstream stage of Trypanosoma brucei brucei (called LUC cell line) as previously described. Briefly, to a 96-well culture plate containing 2.2 μL/well DMSO (negative control) or compounds dissolved in DMSO (1% final concentration), 220 μL/well of a suspension of 1 × 10^5 parasites/mL was added. The plates were incubated at 37 °C and 5% CO2 for 24 h. Next, each well was transferred to a 96-well black plate and 20 μL of a solution containing D-Luciferin (1.5 mg/mL in PBS glucose 1% w/v) and Triton X-100 (0.05% vol/vol) was added. Bioluminescence signal was measured in a LUMIstar OPTIMA Microplate luminometer using the following settings: 10 s shaking, 5 s/well acquisition, 0.2 s measurement delay, maximum gain, and 37 °C. For the bioluminescence assay, parasite viability was calculated according to the following formula: Viability (%) = (BLcpd—BLblank)/ (Blneg—BLblank) × 100, where BL refers to the mean of bioluminescence signal corresponding to the tested compound (cpd), the blank (blank, complete media containing 1% v/v DMSO), or the negative control (neg, parasites treated with 1% v/v DMSO). EC50 values were determined from concentration-response curves fitted to a four-parameter sigmoid equation using the GraphPad Prism software (version 6.0). All errors are expressed as one SD.

Data set [3] relates to C6 glioma cells. Description: WST-1 cell viability assay on C6 cells. In kind it is cell-based, Rat. As to conditions: for IC50: Rattus norvegicus, 48 h exposure, read-out: IC50 of cell proliferation / cell viability (WST-1). As for the experimental part:
as §1
WST-1 Cell Viability Assay: After compound treatment, conditioned media were removed and replaced with 75 μL of warm low-serum media. To each well was added 5 μL of WST-1 Cell Proliferation Reagent (Roche Applied Science, Penzberg, Germany), and the cells were incubated at 37 °C for no more than 1 h. Plates were briefly shaken prior to reading the absorbance at 450 nm. Treatments were compared to vehicle control.
On the technique in general: Tetrazolium dyes change colour on reduction, which living cells bring about.

The test system of data set [4] is C6 glioma cells. Briefly: GDNF release by C6 cells (sandwich ELISA of culture medium). In kind it is cell-based, Rat. To be noted: 48 h; for GDNF in the medium relative to negative control (GDNF/DMSO): initial screening, confluent C6 cells, 10 μM; for EC50: Rattus norvegicus, C6 glioma, read-out: EC50 of GDNF release; for maximum GDNF release relative to vehicle: dose-response assay, maximum at 10 µM. As to the method:
as §1
GDNF release experiments: Into a 96-well plate were added C6 cells at a density of 25,300 cells/well in full growth medium (see above). Cells were allowed to adhere for 24 h at 37 °C. Cells were then serum-starved with media containing 0.5% FBS (low serum) for an additional 24 h. Low-serum media was refreshed prior to starting the experiment. Compounds were added in 50 μL of low-serum media to obtain a final volume of 200 μL/well. Treatments were performed in quadruplicate. […] Experiments were terminated by removing the conditioned media from each well and storing them at −80 °C until analyzed. GDNF was detected using a standard sandwich-style ELISA kit purchased from Promega Corporation (Madison, WI, USA) following the manufacturer’s instructions. Briefly, monoclonal anti-GDNF antibodies were captured onto a 96-well Nunc Immulon Immunoassay plate at a dilution of 1:1000 in carbonate coating buffer (25 mM sodium bicarbonate, 25 mM sodium carbonate, pH 8.2) overnight at 4 °C. After removing the monoclonal antibody, wells were blocked with 1× block and sample buffer for 1 h at RT (200 μL/well). A GDNF standard curve was created by serially diluting the recombinant human GDNF standard in 1× block and sample buffer to a concentration range of 0−1000 pg mL^−1. To each sample well was added 100 μL of conditioned media from above and the standard curve (in duplicate), and plates were incubated for 6 h with shaking at RT. After washing five times with TBST (150 mM sodium chloride, 10 mM Tris·HCl, 10 mM Tris base, 0.05% Tween 20, pH 7.6), wells were incubated with antihuman polyclonal GDNF antibodies (1:500) in 1× block and sample buffer overnight at 4 °C. Following an additional five washes with TBST, wells were incubated with antichicken IgY-HRP conjugate antibody (1:250) for 2 h with light shaking. After a final five washes, TMB One (100 μL/well) was added to each well and allowed to develop in the absence of light until there were clear differences in color between the highest and lowest concentrations of the standard curve. Wells were then quenched with 1 M HCl (100 μL/well), and the plates were read at an absorbance wavelength of 450 nm using a BioTek Synergy H1 plate reader.
On the technique in general: An ELISA detects its analyte on a solid surface through an enzyme-linked reagent.

Data set [5] relates to bloodstream Trypanosoma brucei brucei. To be noted: read-out: EC50 (µM) against bloodstream T. b. brucei, same cell line and assay conditions, ref Benítez et al. 2020, cited from earlier work.
Setting [6] is: read-out: EC50 (µM) against bloodstream T. b. brucei, mean SD (n = 3).
The mark [7] stands for this setting: mean SD (n = 3), read-out: EC50 (µM) against bloodstream T. b. brucei.
[8] abbreviates: Trypanosoma brucei, mean SD (n = 3), read-out: EC50 (µM) against bloodstream T. b. brucei.
The mark [9] stands for this setting: Trypanosoma brucei, read-out: EC50 (µM) against bloodstream T. b. brucei, 24 h, mean SD (n = 3).

Broadly, the viability is a read-out of living cells in per cent, often relative to untreated cells. For orientation: EC50 means the concentration that produces a half-maximal response.

“And” between values parts separate entries of the source, which are not always exact repeats. Equal entries are not always repeated. Where two headings read alike, the source gives them in different places.

Take `COC(=O)C1C2C=CC(C)(C3OC(C)(C)OC23)N1CCc1c[nH]c2ccccc12` [Compound 6, (1S, 3R, 4S, 5R, 6S)-Methyl N-(2-(3-indolyl)ethyl)-1-methyl-5,6-isopropylidendioxy-2-azabicycle[2.2.2]-7-octenen-3-carboxylate]: the “concentrations with significant cell lysis / cell death (LDH)” value in data set [1] turned out to be 60 µM. Moreover, the viability at 10 µM in data set [2] (Trypanosoma brucei) worked out at 24 ± 6%. Further, the EC50 in data set [2] (setting [6]) is 7.9 µM and 7.96 µM. Further, the “concentrations at which cell viability is impaired (WST-1)” value in data set [3] (48 h, dose-response 0.03 to 60 µM) is no less than 10 µM. In addition, the “GDNF in the medium relative to negative control (GDNF/DMSO)” value in data set [4] is “up to 6 times”.

Consider `COC(=O)C1C2C=CC(C)(C3OC(C)(C)OC23)N1CCc1c[nH]c2ccccc12` [Compound 7, (1S, 3S, 4S, 5S, 6R)-Methyl N-(2-(3-indolyl)ethyl)-1-methyl-5,6-isopropylidendioxy-2-azabicycle[2.2.2]-7-octenen-3-carboxylate], for which the EC50 in data set [2] (setting [7]) is 31.5 ± 1.18 µM; in data set [2] (setting [8]) it was 31.5 µM. Moreover, the “Viability at 10 µM (%)” value in data set [2] (bloodstream T. b. brucei, 10 µM) is listed as 42 ± 14%.

On to `CC(C)C(C)(C)[Si](C)(C)OCC1NC2(C)C=CC1C1OC(C)(C)OC12` [Compound 10exo, (1S, 3R, 4S, 5R, 6S)-1-Methyl-3-(dimethyl(1,1,2-trimethylpropyl)silyloxy)methyl-5,6-isopropylidendioxy-2-azabicycle[2.2.2]-7-octene], for which, in data set [2] (Trypanosoma brucei), the viability at 10 µM worked out at 64 ± 2%.

Consider `CC(C)C(C)(C)[Si](C)(C)OCC1C2C=CC(C)(C3OC(C)(C)OC23)N1CCc1c[nH]c2ccccc12` [Compound 11, (1S, 3R, 4S, 5S, 6R)-N-(2-(3-indolyl)ethyl)-1-methyl-3-(dimethyl(1,1,2-trimethylpropyl)silyloxy)methyl-5,6-isopropylidendioxy-2-azabicycle[2.2.2]-7-octene], for which the EC50 in data set [2] (setting [7]) was found to be 7.95 ± 0.34 µM; in data set [2] (setting [8]), 7.9 µM; in data set [4] (dose-response 0.03 to 60 µM), 3.46 µM. Further, in data set [2] (Trypanosoma brucei), the viability at 10 µM is 37 ± 6%. Also, in data set [3], the IC50 stood at 17.7 µM. Further, the “maximum GDNF release relative to vehicle” value in data set [4] amounted to 9 times. The “GDNF in the medium relative to negative control (GDNF/DMSO)” value in data set [4] was no more than 15 times.

As to `CC1(C)OC2C3C=CC(C)(C2O1)N(CCc1c[nH]c2ccccc12)C3CO` [Compound 13, (1S, 3R, 4S, 5S, 6R)-N-(2-(3-indolyl)ethyl)-1-methyl-3-hydroxymethyl-5,6-isopropylidendioxy-2-azabicycle[2.2.2]-7-octene], in data set [2] (Trypanosoma brucei), the viability at 10 µM worked out at 88%.

In the case of `CC1(C)OC2C3C=CC(C)(C2O1)N(CCc1c[nH]c2ccccc12)C3COCc1ccccc1` [Compound 14, (1S, 3R, 4S, 5S, 6R)-N-(2-(3-indolyl)ethyl)-1-methyl-3-benzyloximethyl-5,6-isopropylidendioxy-2-azabicycle[2.2.2]-7-octene], the 50% effective concentration (EC50) in data set [2] (setting [9]) came out at 1.3 µM. Also, the viability at 10 µM in data set [2] (Trypanosoma brucei) was 22 ± 12%. Moreover, in data set [2] (setting [6]), the concentration giving a half-maximal response (EC50) stood at 1.27 ± 0.26 µM. The “lowest concentration with impairment in cell viability (WST-1)” value in data set [3] (48 h, dose-response) is reported as no less than 300 nM. Also, in data set [4], the EC50 is 20.1 µM, the “maximum GDNF release relative to vehicle” value stood at 23 times and the “GDNF in the medium relative to negative control (GDNF/DMSO)” value is given as no more than 7 times.

Regarding `CC1(C)OC2C3C=CC(C)(C2O1)N(CCc1c[nH]c2ccccc12)C3COC(=O)Cc1c[nH]c2ccccc12` [Compound 15, (1S, 3R, 4S, 5S, 6R)-N-(2-(3-indolyl)ethyl)-1-methyl-3-(2-(1H-3-indolyl)acetyloxy)methyl-5,6-isopropylidendioxy-2-azabicycle[2.2.2]-7-octene], the EC50 was determined as 3.47 ± 0.02 µM in data set [2] (setting [7]), 3.5 µM in data set [2] (setting [8]) and 6.79 µM in data set [4] (dose-response 0.03 to 60 µM). The viability at 10 µM in data set [2] (Trypanosoma brucei) came out at 0%. Also, in data set [3], the IC50 was determined as 3.5 µM. Also, in data set [4], the “maximum GDNF release relative to vehicle” value is 70 times. Besides, the “GDNF in the medium relative to negative control (GDNF/DMSO)” value in data set [4] is reported as “up to 60 times”.

Take `CC1CS(=O)(=O)CCN1/N=C/c1ccc([N+](=O)[O-])o1` (stereo not drawn) [Nifurtimox]: the figures for the half-maximal effective concentration (EC50) in data set [5] and in data set [5] (listed as Nfx) were 5.3 µM and 5.31 ± 0.44 µM, respectively.

`CCC1CC2C=CC1N(CCc1c[nH]c3ccc(F)cc13)C2` (stereo not drawn) [XL-008, reference compound]: the results for the EC50 in data set [2] (setting [9]) and in data set [2] (setting [6]) were 20 µM and 19.5 ± 0.3 µM, respectively. Besides, the “GDNF in the medium relative to negative control (GDNF/DMSO)” value in data set [4] is on record as ~ 57 times.
